Data on five substances can be found in patent US11142550B2, “Split inteins with exceptional splicing activity” (THE TRUSTEES OF PRINCETON UNIVERSITY, priority 2016, dated 2021).

Data set [1] relates to split intein constructs with short native extein sequences. Nature of the data set: in vitro protein trans-splicing (PTS) assay, RP-HPLC / ESI-MS kinetics. The class given is biochemical. From the text:
Thus, attention was focused on ‘second shell’ residues, those directly adjacent to the active site. To simplify this analysis, a batch mutagenesis strategy was employed in conjunction with a previously reported in vitro PTS assay.^5 This assay uses split intein constructs with short native extein sequences and allows the rates of branched intermediate formation (k1,k2) and its resolution to final splice products (k3) to be determined using a three state kinetic model.
Splicing reactions were carried out as adapted from a previously described protocol. Briefly, N- and C-inteins (15 μM Int^N, 10 μM Int^C) were individually preincubated in splicing buffer (100 mM sodium phosphates, 150 mM NaCl, 1 mM EDTA, pH 7.2) with 2 mM TCEP for 15 minutes. All splicing reactions were carried out at 30° C. unless otherwise indicated. Splicing reactions comparing the tolerance of Npu and Cfa to chaotropic agents were carried out with the indicated concentration of either Urea or guanidine hydrochloride. Splicing was initiated by mixing equal volumes of N- and C-inteins with aliquots removed at the indicated times and quenched by the addition of 8M guanidine hydrochloride, 4% TFA (3:1 v/v). For all splicing reactions containing either Npu^C-CFN or Cfa^C-CFN, reaction progress was monitored by RP-HPLC. […] (15 minute preincubation) were both observed to be inefficient, reaching ˜50% completion. This is likely due to aggregation (and inactivation) of the N-intein. Note, shorter preincubations of Cfa at 80° C. led to more efficient splicing.
Kinetic analysis was carried out as previously described.^1 Briefly, five species (1-5) are separated by RP-HPLC, and peak areas are determined. For ESI-MS, peak areas are calculated for species 1-4. Each individual peak was normalized against the total area of all peaks combined and reaction progress curves were plotted (n=3). The data were then fit in ProFit to the analytical solution to the coupled differential rate equation for the three state kinetic splicing model. Because the starting material cannot be separated from the linear thioester using this assay, the three state kinetic model collapses the binding step and the first two steps of the splicing reaction into one equilibrium. Each splicing reaction was carried out in triplicate with each replicate analyzed separately. The mean and standard deviation for all values (n=3) are reported.
All splicing reactions comparing Npu and Cfa were separated by RP-HPLC with peak areas once again calculated using the manufacturer's software. For these reactions, peak areas for the starting material and branched intermediate (species 1 and 2) and product (species 3, 4, 5) were calculated. The data was then fit to the first order rate equation using the GraphPad Prism software. [P](t)=[P]max·(1−e^−kt)
Where [P] is the normalized intensity of product, [P]max is this value at t=∞ (the reaction plateau), and k is the rate constant (s^−1). The mean and standard deviation (n=3) are reported.

Data set [2] in a line: refolding of N-inteins by stepwise dialysis. The class given is physicochemical. As to conditions: stepwise dialysis into lysis buffer, 4° C. The protocol:
The N-inteins were refolded by stepwise dialysis into lysis buffer with 0.5 mM DTT at 4° C. This refolded protein was then treated with 10 mM TCEP and Ulp1 protease (overnight, RT) to cleave the His6-SUMO expression tag. The solution was then mixed with 4 mL Ni-NTA resin and incubated for 30 minutes at 4° C. The slurry was applied to a fritted column and the flow through was collected together with a 3 CV wash with lysis buffer. The protein was then treated with 10 mM TCEP, concentrated to 10 mL, and further purified by size exclusion chromatography using an S75 16/60 gel filtration column employing degassed splicing buffer (100 mM sodium phosphate, 150 mM NaCl, 1 mM EDTA, pH 7.2) as the mobile phase. Fractions were analyzed by SDS-PAGE, analytical RP-HPLC, and ESI-MS. Pure protein was stored by flash-freezing in liquid N2 following the addition of glycerol (20% v/v).

In data set [3] the test system is split aminoglycoside phosphotransferase (KanR) in E. coli. Briefly: protein splicing coupled kanamycin resistance (Kan^R) assay. It is filed as cell-based. Conditions: +2 position of the C-extein. Here is the method: The protein splicing coupled kanamycin resistance (Kan^R) assay was carried out as previously described.^2,9 Briefly, a plasmid coding for a fragmented aminoglycoside phosphotransferase fused to a split intein (Cfa) with either F, G, R, or E present at the +2 position of the C-extein (plasmids 22-25) was transformed into DH5α competent cells and grown in starter cultures overnight (LB Broth, 100 μg/mL ampicillin, 18 hrs). These cultures were then diluted twenty-fold into a 96 well plate, and E. coli growth was measured at various concentrations of kanamycin (2.5, 10, 25, 50, 100, 250, 1000 μg/mL kanamycin with 100 μg/mL ampicillin). The cell optical density at 650 nm (OD650) at the 24-hour end point was fit to a dose response curve with variable slope.
Where ODmin was fixed to background absorbance at 650 nm. Each assay was carried out in triplicate, fit separately, and IC50 values are reported as the mean and standard deviation of IC50 for these three separate measurements.
The kanamycin resistance protein, KanR, is split and fused to N- and C-intein fragments (Cfa^N and Cfa^C). The +2 C-extein residue (red X) is varied in the system. In Panel B, IC50 values for kanamycin resistance of the CfaEKD (WT) and CfaGEP (GEP) inteins with indicated +2 C-extein residue are shown (error=standard error (n=3)).

The test system of data set [4] is Cfa^C-CFN. Nature of the data set: protein trans-splicing of extracted inclusion body under denaturing conditions. The class given is biochemical. As to conditions: extracted from inclusion bodies with 6M urea. Here is the method:
E. coli inclusion bodies containing His6-Sumo-Cfa^N expression (plasmid 20) were resuspended and extracted overnight at 4° C. in lysis buffer containing 6M urea. Following centrifugation (35,000 rcf, 30 min), the supernatant was removed and the protein enriched by Ni-NTA under denaturing conditions (as described above). However, instead of refolding the protein, trans-splicing was directly initiated by the addition of Cfa^C-CFN (10 μM Cfa^C, 2 mM TCEP, 2 mM EDTA, 2 hrs, RT). Reaction progress was monitored by SDS-PAGE.

The test system of data set [5] is split intein constructs with short native extein sequences. As to conditions: 30° C.; cited from earlier work.

“Also recorded” adds a separate entry of the source.

On to “A136S: A136S point mutant on the Ssp^C intein; plasmid 19, SEQ ID NO: 379 [Compound A136S]”, for which, in data set [1] (mutation on Ssp^C), the “effect of mutation on branch formation” value is recorded as “no impact” and the “effect of mutation on rate of branch resolution” value is “two fold”.
In the case of “Batch 3: Ssp^N batch mutant (S23E, E24K, E25R, N27E); plasmid 13, SEQ ID NO: 373”, the splicing completion in data set [1] (30° C.) was about 50%. The “precipitation during the refolding step” value in data set [2] was “significant protein precipitation was observed”.
Consider “Cfa: consensus fast DnaE split intein; Cfa^N SEQ ID NO: 2, Cfa^C SEQ ID NO: 3”, for which the “splicing rate constant k (residual activity)” value in data set [1] (4M GuHCl) amounted to 7e-05 s⁻¹. The splicing in urea entry in data set [1] (8M urea) is given as “largely unaffected”. Besides, in data set [1] (30° C., relative to Npu), the “branch formation rate, increase over Npu” value is 3 fold; the “branch resolution rate, increase over Npu” value is on record as 2 fold; the “splices faster than Npu” value turned out to be 2.5 fold. Further, the “splicing activity at 80° C.” value in data set [1] (80° C.) is given as “maintains activity at 80° C., albeit with reduced yield of splice products”. Besides, the splicing completion in data set [1] (80° C., 15 minute preincubation) is on record as about 50%. The “GuHCl concentration up to which the intein splices” value in data set [1] (guanidine hydrochloride added) is reported as “up to 4 M”. In addition, the “splicing activity in GuHCl” value in data set [1] (up to 3M GuHCl) was “little decrease in activity”. Also, in data set [3], the “C-extein +2 residue preference” value is given as “retains the preference for a bulky hydrophobic residue”.
In the case of “Cfa^N fusion: model fusion protein His6-SUMO-AEY-Cfa^N; plasmid 20, SEQ ID NO: 381”, in data set [4], the “modification by PTS without refolding” value is given as “efficiently, modified by PTS”.
As for “Npu: DnaE split intein from Nostoc punctiforme PCC73102; SEQ ID NO: 5 and 6 [reference compound]”, the splicing in urea result is “inactive” in data set [1] (8M urea) and “falls off dramatically” in data set [1] (above 4M urea). For the same substance, the “splicing activity at 80° C.” value in data set [1] (80° C.) was “inactive”. Besides, the “splicing activity in GuHCl” value in data set [1] (≥3M GuHCl (3M in FIG. 2 legend)) is “no activity was observed; also recorded: inactive”. Besides, the “rate of protein trans-splicing (PTS), t1/2” value in data set [5] is on record as 50 s.
